Results from ChEMBL document CHEMBL5465560, “Selectivity Literature for EUbOPEN Chemogenomic Library” (2024).
Each block holds one compound with its values, some of them ahead of it.

Key:
[1] = target: Calcium/calmodulin-dependent protein kinase kinase 1 (Homo sapiens) (UniProt Q8N5S9); test: Selectivity interaction (Ambit KINOMEscan and KiNATiv profiling in Jurkat cells) EUB0000090b CAMKK1; format: cell-based; conditions: at 1 µM
[2] = target: T1, Phosphatidylinositol 5-phosphate 4-kinase type-2 beta (Homo sapiens) (UniProt P78356); test: Selectivity interaction (ActivX KiNativ screen (ex vivo kinase selectivity in human PBMCs)) EUB0001619a PIP4K2B; format: cell-based; conditions: PBMC, at 1 µM
T1 sequence (whole entry): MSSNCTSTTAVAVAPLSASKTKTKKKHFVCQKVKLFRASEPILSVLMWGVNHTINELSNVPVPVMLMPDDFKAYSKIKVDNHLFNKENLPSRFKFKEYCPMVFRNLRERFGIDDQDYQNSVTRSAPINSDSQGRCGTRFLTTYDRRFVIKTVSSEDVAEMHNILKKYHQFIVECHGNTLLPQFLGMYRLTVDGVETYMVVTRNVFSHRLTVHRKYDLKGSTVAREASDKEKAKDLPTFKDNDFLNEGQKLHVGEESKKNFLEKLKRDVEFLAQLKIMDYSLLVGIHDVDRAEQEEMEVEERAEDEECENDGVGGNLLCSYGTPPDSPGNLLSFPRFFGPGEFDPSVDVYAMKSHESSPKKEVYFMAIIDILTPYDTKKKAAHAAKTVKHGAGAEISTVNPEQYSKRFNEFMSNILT

[3] = target: Serine/threonine-protein kinase PAK 2 (Homo sapiens) (UniProt Q13177); test: Selectivity interaction (KinomeScan (DiscoverX)) EUB0001619a PAK2; conditions: at 1 µM
[4] = target: Non-receptor tyrosine-protein kinase TYK2 (Homo sapiens, UniProt P29597); test: Selectivity interaction (KinomeScan (DiscoverX)) EUB0000045b TYK2
Non-receptor tyrosine-protein kinase TYK2, sequence (P29597 whole entry): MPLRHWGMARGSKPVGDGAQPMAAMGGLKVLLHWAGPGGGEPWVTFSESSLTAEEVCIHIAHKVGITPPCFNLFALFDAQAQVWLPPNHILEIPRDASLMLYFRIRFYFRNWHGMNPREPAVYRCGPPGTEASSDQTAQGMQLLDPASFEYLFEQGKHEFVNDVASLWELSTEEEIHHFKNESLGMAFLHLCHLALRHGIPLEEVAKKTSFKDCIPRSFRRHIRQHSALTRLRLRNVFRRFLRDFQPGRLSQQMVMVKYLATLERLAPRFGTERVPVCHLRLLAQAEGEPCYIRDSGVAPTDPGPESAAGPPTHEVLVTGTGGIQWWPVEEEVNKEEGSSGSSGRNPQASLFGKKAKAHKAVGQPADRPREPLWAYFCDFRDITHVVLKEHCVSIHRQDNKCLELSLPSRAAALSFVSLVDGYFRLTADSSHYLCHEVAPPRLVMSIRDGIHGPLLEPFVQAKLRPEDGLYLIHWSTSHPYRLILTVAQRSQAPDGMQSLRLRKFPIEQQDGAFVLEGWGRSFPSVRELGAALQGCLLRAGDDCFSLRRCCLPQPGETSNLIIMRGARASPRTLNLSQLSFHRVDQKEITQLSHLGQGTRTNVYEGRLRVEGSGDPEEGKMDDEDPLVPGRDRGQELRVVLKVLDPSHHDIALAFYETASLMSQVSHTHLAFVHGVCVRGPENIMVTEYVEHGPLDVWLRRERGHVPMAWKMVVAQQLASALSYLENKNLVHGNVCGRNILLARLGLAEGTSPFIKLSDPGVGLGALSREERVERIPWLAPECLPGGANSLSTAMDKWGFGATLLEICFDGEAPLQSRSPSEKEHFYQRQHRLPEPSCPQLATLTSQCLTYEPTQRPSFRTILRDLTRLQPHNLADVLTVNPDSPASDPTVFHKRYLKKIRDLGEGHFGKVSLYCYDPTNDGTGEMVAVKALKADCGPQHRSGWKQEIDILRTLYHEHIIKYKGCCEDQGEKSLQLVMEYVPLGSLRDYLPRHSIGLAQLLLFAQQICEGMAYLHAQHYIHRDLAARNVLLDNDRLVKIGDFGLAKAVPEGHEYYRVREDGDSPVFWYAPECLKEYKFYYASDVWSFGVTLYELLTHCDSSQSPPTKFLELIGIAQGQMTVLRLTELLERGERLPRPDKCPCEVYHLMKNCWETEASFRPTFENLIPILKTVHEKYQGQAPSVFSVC

[5] = target: Mitogen-activated protein kinase kinase kinase kinase 1 (Homo sapiens) (UniProt Q92918); test: Selectivity interaction (KinomeScan (DiscoverX)) EUB0000595a MAP4K1; conditions: at 10 µM
[6] = target: T2, SNF-related serine/threonine-protein kinase (Homo sapiens) (UniProt Q9NRH2); test: Selectivity interaction (KinomeScan (DiscoverX)) EUB0000595a SNRK; conditions: at 10 µM
T2 sequence (whole entry): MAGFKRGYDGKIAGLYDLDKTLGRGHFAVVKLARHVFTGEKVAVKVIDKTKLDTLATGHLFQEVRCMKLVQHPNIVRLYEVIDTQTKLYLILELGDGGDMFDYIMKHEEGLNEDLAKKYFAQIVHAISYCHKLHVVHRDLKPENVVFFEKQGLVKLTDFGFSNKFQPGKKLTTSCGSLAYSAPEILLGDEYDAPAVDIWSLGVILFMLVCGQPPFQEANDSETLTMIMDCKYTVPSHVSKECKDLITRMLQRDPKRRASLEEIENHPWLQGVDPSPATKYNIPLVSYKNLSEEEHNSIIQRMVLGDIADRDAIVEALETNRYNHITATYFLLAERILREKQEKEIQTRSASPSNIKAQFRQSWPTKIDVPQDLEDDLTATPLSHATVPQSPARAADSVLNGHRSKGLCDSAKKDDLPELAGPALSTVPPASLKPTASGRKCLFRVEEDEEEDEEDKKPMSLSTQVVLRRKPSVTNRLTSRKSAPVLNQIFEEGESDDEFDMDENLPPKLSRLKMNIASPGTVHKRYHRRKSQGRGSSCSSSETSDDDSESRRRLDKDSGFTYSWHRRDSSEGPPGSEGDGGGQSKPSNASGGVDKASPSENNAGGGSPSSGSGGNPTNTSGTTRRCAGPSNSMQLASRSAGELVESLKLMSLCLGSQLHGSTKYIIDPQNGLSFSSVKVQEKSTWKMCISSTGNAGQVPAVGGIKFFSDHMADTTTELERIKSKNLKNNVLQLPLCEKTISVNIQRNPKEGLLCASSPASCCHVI

[7] = target: T3, Tyrosine-protein kinase ZAP-70 (Homo sapiens) (UniProt P43403); test: Selectivity interaction (KinomeScan (DiscoverX)) EUB0000595a ZAP70; conditions: at 10 µM
T3 sequence (whole entry): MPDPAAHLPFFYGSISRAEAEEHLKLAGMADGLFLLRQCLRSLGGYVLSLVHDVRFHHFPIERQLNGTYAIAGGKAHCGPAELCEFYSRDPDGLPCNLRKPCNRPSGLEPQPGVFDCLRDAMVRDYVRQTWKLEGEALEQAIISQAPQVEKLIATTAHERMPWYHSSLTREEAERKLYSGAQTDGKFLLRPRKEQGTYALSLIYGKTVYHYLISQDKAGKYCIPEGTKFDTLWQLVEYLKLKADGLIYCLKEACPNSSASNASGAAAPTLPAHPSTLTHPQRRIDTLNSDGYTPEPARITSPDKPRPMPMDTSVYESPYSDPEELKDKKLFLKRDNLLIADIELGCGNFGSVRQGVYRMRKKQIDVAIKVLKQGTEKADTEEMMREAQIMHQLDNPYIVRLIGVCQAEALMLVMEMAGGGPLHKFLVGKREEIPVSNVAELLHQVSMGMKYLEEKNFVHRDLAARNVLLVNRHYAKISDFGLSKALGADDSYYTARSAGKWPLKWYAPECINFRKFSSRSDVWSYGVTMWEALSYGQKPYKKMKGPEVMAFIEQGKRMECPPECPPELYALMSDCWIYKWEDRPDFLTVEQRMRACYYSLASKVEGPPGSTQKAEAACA

[8] = target: [Pyruvate dehydrogenase (acetyl-transferring)] kinase isozyme 1, mitochondrial (Homo sapiens, UniProt Q15118); test: Selectivity interaction (Upstate Kinase Profiler service (Millipore)) EUB0000056c PDK1; conditions: at 1 µM
[9] = target: Leukocyte tyrosine kinase receptor (Homo sapiens, UniProt P29376); conditions: at 10 µM
Leukocyte tyrosine kinase receptor, sequence (P29376 whole entry): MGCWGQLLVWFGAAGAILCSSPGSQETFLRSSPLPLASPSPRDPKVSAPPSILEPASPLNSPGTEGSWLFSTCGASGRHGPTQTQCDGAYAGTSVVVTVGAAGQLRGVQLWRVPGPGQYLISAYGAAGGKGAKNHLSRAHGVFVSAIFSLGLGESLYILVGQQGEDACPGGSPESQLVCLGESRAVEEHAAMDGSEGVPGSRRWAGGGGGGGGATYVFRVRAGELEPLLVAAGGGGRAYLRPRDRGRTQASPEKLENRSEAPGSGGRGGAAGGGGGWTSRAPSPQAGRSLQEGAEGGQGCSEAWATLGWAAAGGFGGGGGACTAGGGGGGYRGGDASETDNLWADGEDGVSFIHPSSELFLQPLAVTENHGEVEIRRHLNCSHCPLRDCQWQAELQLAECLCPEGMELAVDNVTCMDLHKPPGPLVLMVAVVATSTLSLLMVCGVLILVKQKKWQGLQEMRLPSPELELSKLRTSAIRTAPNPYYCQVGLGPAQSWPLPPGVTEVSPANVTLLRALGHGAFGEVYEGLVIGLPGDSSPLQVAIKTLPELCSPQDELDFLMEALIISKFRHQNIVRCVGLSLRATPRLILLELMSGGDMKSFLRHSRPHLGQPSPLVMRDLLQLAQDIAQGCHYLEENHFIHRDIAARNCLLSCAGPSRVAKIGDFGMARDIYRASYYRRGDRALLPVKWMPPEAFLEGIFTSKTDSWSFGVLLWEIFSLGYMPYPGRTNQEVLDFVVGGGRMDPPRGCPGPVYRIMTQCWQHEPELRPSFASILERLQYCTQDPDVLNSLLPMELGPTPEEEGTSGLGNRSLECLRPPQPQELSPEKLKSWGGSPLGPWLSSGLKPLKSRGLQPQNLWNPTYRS

[10] = target: Serine/threonine-protein kinase MARK2 (Homo sapiens) (UniProt Q7KZI7); test: Selectivity interaction (ActivX KiNativ screen (kinase selectivity in THP-1 cell lysates)) EUB0000639a MARK2; format: subcellular; conditions: lysate, at 0.04 µM
[11] = target: Myosin light chain kinase 2, skeletal/cardiac muscle (Homo sapiens) (UniProt Q9H1R3); test: Selectivity interaction (KinomeScan (DiscoverX)) EUB0001049a MYLK2; conditions: at 1 µM
Myosin light chain kinase 2, skeletal/cardiac muscle (Homo sapiens), sequence (Q9H1R3 whole entry): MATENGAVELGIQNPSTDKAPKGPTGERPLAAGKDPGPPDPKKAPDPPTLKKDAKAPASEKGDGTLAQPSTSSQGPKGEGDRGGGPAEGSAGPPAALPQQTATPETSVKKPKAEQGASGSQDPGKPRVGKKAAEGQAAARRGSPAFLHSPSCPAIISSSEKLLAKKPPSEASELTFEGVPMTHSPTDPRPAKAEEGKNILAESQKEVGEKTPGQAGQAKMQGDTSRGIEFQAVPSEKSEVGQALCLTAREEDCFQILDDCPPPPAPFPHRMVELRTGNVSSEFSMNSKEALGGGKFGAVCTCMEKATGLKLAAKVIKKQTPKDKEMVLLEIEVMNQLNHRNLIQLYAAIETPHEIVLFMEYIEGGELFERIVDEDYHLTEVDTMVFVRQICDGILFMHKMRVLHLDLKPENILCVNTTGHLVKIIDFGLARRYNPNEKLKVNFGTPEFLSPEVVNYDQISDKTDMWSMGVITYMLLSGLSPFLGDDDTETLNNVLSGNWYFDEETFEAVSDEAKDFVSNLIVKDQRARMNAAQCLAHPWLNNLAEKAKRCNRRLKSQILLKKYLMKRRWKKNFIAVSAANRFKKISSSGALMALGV

[12] = target: Mitogen-activated protein kinase 1 (Homo sapiens, UniProt P28482); test: Selectivity interaction (Rxn Biology Kinase assay) EUB0001632a MAPK1; conditions: at 10 µM
[13] = target: Proto-oncogene tyrosine-protein kinase ROS (Homo sapiens) (UniProt P08922); test: Selectivity interaction (KinomeScan (DiscoverX)) EUB0000695a ROS1; conditions: at 100 nM
Proto-oncogene tyrosine-protein kinase ROS (Homo sapiens), sequence (P08922 whole entry): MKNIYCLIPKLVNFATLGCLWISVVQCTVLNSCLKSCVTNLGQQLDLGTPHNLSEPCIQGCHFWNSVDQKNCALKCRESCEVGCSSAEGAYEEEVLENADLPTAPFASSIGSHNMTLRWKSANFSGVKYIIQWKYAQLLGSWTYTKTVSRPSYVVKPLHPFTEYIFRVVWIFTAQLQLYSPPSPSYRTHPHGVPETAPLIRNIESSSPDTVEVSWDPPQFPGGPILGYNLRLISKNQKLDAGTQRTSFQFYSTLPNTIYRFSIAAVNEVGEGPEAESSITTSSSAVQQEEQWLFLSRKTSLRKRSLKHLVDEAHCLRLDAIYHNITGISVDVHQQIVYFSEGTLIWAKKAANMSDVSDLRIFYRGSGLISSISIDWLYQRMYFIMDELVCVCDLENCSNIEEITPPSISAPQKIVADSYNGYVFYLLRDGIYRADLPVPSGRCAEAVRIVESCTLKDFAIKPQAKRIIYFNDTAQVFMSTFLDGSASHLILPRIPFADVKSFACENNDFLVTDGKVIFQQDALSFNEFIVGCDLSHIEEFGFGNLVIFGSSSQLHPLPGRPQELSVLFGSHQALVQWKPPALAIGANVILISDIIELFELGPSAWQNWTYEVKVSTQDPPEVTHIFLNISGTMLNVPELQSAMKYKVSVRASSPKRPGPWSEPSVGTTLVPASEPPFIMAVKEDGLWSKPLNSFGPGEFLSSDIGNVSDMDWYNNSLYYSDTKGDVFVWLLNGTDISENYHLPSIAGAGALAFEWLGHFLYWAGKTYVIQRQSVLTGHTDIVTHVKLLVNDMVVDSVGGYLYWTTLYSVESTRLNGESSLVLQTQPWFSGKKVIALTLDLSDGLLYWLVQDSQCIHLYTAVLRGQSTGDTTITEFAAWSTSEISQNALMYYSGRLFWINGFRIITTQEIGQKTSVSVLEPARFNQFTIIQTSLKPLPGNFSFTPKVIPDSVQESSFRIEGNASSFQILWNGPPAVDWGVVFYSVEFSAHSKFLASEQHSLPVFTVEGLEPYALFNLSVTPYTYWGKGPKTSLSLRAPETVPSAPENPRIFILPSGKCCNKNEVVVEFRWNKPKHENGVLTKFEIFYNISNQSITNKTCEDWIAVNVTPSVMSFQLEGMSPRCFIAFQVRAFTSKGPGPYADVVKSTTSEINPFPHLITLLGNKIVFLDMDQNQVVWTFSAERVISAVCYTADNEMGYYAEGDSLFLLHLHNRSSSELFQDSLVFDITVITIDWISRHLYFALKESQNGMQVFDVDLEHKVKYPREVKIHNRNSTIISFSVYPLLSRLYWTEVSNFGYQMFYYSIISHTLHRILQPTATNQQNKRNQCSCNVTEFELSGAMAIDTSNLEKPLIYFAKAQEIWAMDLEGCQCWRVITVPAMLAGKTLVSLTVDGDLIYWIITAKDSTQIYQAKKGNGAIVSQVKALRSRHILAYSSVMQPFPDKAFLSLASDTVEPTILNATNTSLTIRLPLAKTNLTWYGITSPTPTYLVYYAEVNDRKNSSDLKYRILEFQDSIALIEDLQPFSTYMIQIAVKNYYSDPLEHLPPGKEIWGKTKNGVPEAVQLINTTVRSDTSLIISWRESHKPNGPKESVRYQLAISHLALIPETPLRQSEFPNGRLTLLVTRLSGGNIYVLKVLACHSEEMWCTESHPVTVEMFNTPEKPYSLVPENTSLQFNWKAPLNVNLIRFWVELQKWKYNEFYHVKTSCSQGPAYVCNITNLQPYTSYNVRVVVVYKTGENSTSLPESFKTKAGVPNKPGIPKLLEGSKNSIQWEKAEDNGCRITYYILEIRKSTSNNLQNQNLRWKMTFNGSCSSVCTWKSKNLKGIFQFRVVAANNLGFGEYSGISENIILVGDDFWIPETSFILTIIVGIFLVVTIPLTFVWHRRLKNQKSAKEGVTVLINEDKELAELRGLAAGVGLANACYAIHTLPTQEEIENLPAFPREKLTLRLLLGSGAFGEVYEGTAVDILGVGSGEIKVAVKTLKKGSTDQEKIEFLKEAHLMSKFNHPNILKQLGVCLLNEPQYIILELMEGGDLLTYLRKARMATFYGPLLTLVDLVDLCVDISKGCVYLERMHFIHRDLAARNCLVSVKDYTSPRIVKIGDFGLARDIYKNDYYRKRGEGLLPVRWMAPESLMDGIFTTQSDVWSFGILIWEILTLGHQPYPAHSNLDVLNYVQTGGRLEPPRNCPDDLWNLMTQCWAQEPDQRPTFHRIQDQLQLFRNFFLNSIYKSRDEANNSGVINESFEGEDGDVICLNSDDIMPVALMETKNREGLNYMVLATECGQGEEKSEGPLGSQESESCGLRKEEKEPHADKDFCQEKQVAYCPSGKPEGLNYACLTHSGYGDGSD

SMILES: CN(C)C/C=C/C(=O)Nc1ccc(C(=O)N2CCCC(Nc3ncc(Cl)c(-c4c[nH]c5ccccc45)n3)C2)cc1 (centres undefined)
% of control [1]: 92%

SMILES: N#Cc1cccc(-c2c[nH]c3ncnc(N4CCOCC4)c23)c1
% of inhibition [2]: 15% | % of control [3]: 100%

SMILES: C=CC(=O)Nc1cc(-n2c(=O)ccc3cnc4ccc(-c5ccc(NS(C)(=O)=O)cc5)cc4c32)ccc1C
% of control ([4]; at 1 µM): 100% | % of control ([4]; at 10 µM): 100%

SMILES: COCC(=O)NC/C=C/c1ccc2ncnc(Nc3ccc(Oc4ccc(C)nc4)c(C)c3)c2c1 [CP-724714]
% of control [5]: 91% | % of control [6]: 71% | % of control [7]: 100%

% of inhibition [8]: 0%
SMILES: Cc1ccc(-c2ccc3c(ccc4sc5c(c43)NC[C@@H](C)NC5=O)n2)cn1

SMILES: Cc1cc([C@@H](C)Nc2ccccc2C(=O)O)c2nc(N3CCOCC3)cc(=O)n2c1 [AZD-6482]
% of control [9]: 95%

% of inhibition [10]: 8.3%
SMILES: CC[C@@H]1[C@H](F)C(=O)N[C@@H]1COc1nccc2cc(C(N)=O)c(OC)cc12 [ZIMLOVISERTIB]

SMILES: COc1cc(Nc2nc(C)cc(-c3cnn4nc(OC)ccc34)n2)cc(C(F)(F)F)c1
% of control [11]: 100%

% of inhibition [12]: 5.79%
SMILES: Cn1cc(-n2cnc3c(NCc4nc5cc(Cl)c(Cl)cc5[nH]4)nc(N4CCOCC4)nc32)cn1

SMILES: Cc1cc(F)c(C(=O)Nc2cccc(-c3nncn3C(C)C)n2)cc1-n1cnc(C2CC2)c1
% of control [13]: 79%
